Consider 27 compounds from patent publication US20260152487A1 (Sitryx Therapeutics Limited, priority 2021, published 2026).

Each structure is given as a SMILES string. Read-outs that look alike come from different tables or passages of the source.

The target of this assay is T1, recombinant human PKM2 (Homo sapiens, UniProt P14618).
T1 construct: His (N); purchased R&D Systems
The experiment in a line: Human PKM2 activation assay (Kinase-Glo Plus luminescent detection of generated ATP). The class given is biochemical. Particulars: for Emax: read-out: hPKM2 Emax; for EC50: 4-parameter logistic fit. The gist of the method: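 Luminescent ATP detection (Kinase-Glo Plus, 15 min, 26 °C) followed a 60 min, 26 °C shaken reaction of compound with […] His-tagged human PKM2, PEP and ADP in imidazole/KCl/MgCl2 buffer with Tween20 and BSA, pH 7.2.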

Setting [1] is: percentage activation normalised to DMSO vehicle (LOW) and 5 μM TEPP-46 (HIGH).
The mark [2] stands for this setting: recombinant human PKM2 activation, read-out: hPKM2 EC50.

T1 sequence (P14618 2-531 limits assumed): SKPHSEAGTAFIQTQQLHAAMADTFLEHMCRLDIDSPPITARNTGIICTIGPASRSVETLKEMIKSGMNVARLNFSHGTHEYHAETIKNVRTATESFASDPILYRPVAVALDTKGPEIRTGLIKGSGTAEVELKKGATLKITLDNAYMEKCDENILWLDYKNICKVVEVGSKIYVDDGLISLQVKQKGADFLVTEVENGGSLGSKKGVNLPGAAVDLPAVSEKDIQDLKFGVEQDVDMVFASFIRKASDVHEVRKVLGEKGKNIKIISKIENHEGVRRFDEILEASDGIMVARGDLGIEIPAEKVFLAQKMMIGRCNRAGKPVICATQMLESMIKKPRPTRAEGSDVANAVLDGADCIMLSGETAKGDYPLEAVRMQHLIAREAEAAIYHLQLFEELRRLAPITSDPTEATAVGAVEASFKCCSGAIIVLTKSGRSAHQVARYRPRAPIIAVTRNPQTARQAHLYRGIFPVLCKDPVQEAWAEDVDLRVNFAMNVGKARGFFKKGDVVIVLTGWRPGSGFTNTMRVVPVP

The term Emax denotes the maximal effect, on the per cent scale that the assay sets. By EC50 is commonly meant the concentration needed to bring the measured effect to its halfway point. As to `O=c1c2ccc(S(=O)(=O)c3cnn(CCO)c3)cc2cnn1Cc1cccc(C2CC2)n1` [Example 307], under setting [1], the Emax is 94.6%. Further, under setting [2], the EC50 was 72.8 nM.
On to `O=c1c2ccc(S(=O)(=O)c3cnccn3)cc2cnn1Cc1cc[nH]n1` [Example 260, 2-((1H-pyrazol-3-yl)methyl)-6-(pyrazin-2-ylsulfonyl)phthalazin-1(2H)-one], for which the Emax under setting [1] came out at 113%. In addition, the half-maximal effective concentration (EC50) under setting [2] worked out at 469 nM.
For `COCCn1cc(S(=O)(=O)c2ccc3c(=O)n(Cc4ccc5c(n4)CCO5)ncc3c2)cn1` [Example 333], under setting [1], the maximum response (Emax) stood at 101%. Besides, the 50% effective concentration (EC50) under setting [2] was 31.8 nM.
As to `Cn1cc(S(=O)(=O)c2ccc3c(=O)n(Cc4ccn(C5CC5)n4)ncc3c2)cn1` [Example 236, 2-((1-cyclopropyl-1H-pyrazol-3-yl)methyl)-6-((1-methyl-1H-pyrazol-4-yl)sulfonyl)phthalazin-1(2H)-one], under setting [1], the Emax is 116%. Also, under setting [2], the half-maximal effective concentration (EC50) came to 120 nM.
With `Cc1cccc(Cn2ncc3cc(S(=O)(=O)c4cnn(CCO)c4)ccc3c2=O)n1` [Example 269], the Emax under setting [1] was determined as 103%. For the same compound, the EC50 under setting [2] stood at 129 nM.
Take `C[C@@H](O)c1cccc(Cn2ncc3cc(S(=O)(=O)c4cnn(C)c4)ccc3c2=O)n1` (single isomer, unassigned) [Example 279]: the maximal effect (Emax) under setting [1] was 88.7%. Besides, the 50% effective concentration (EC50) under setting [2] worked out at 277 nM.
In the same order, the values of `COc1ccc(Cn2ncc3cc(S(=O)(=O)c4cccc(F)c4)ccc3c2=O)cn1` [Example 157, 6-((3-fluorophenyl)sulfonyl)-2-((6-methoxypyridin-3-yl)methyl)phthalazin-1(2H)-one] are 87.5% and 123 nM.
`COc1ccc(Cn2ncc3cc(S(=O)(=O)c4ccn(CCO)n4)ccc3c2=O)cn1` [Example 280, 6-((1-(2-hydroxyethyl)-1H-pyrazol-3-yl)sulfonyl)-2-((6-methoxypyridin-3-yl)methyl)phthalazin-1(2H)-one]: under setting [1], the Emax amounted to 89.2%. Moreover, under setting [2], the EC50 came to 120 nM.
Consider `COc1ccc(Cn2ncc3cc(S(=O)(=O)c4ccccc4Cl)ccc3c2=O)cn1` [Example 163, 6-(2-chlorophenylsulfonyl)-2-((6-methoxypyridin-3-yl)methyl)phthalazin-1(2H)-one], for which the maximal effect (Emax) under setting [1] came out at 77.3%. Besides, the EC50 under setting [2] was determined as 135 nM.
In the same order, the values of `Cn1ccc(Cn2ncc3cc(S(=O)(=O)c4ccccc4)ncc3c2=O)n1` [Example 248, 3-((1-methyl-1H-pyrazol-3-yl)methyl)-7-(phenylsulfonyl)pyrido[3,4-d]pyridazin-4(3H)-one] are 103% and 113 nM.
Taken in the same sequence, the figures for `COc1ccc(Cn2ncc3cc(S(=O)(=O)c4cccc5sc(C)nc45)ccc3c2=O)cn1` [Example 176, 2-((6-methoxypyridin-3-yl)methyl)-6-(2-methylbenzo[d]thiazol-4-ylsulfonyl)phthalazin-1(2H)-one] were 95.8% and 455 nM.
For the compound `COc1ccc(F)c(Cn2ncc3cc(S(=O)(=O)c4cc[nH]n4)ccc3c2=O)n1` [Example 329], the Emax under setting [1] was determined as 98.5%. Under setting [2], the concentration giving a half-maximal response (EC50) was 232 nM.
Regarding `COc1ccc(Cn2ncc3cc(S(=O)(=O)c4ccc(Cl)cc4)ccc3c2=O)cn1` [Example 155, 6-((4-chlorophenyl)sulfonyl)-2-((6-methoxypyridin-3-yl)methyl)phthalazin-1(2H)-one], the maximal response (Emax) under setting [1] is 71.6%. Further, the EC50 under setting [2] was found to be 184 nM.
As for `COc1ccc(Cn2ncc3cc(S(=O)(=O)c4ccc(F)cc4)ccc3c2=O)cn1` [Example 147, 6-((4-fluorophenyl)sulfonyl)-2-((6-methoxypyridin-3-yl)methyl)phthalazin-1(2H)-one], the maximal response (Emax) under setting [1] was 98.8%. Also, the concentration for a half-maximal effect (EC50) under setting [2] was found to be 94.8 nM.
Taken in the same sequence, the figures for `Cc1cccc(Cn2ncc3cc(S(=O)(=O)c4c[nH]nc4Cl)ccc3c2=O)n1` [Example 318] were 95.2% and 185 nM.
In the case of `Cn1ccc(S(=O)(=O)c2ccc3c(=O)n(Cc4cccc(N)c4)ncc3c2)n1` [Example 145, 2-(3-aminobenzyl)-6-((1-methyl-1H-pyrazol-3-yl)sulfonyl)phthalazin-1(2H)-one], the Emax under setting [1] was determined as 106%. Under setting [2], the half-maximal effective concentration (EC50) was determined as 156 nM.
Turning to `COc1ccc(Cn2ncc3cc(S(=O)(=O)c4cn[nH]c4)ccc3c2=O)cn1` [Example 197, 6-((1H-pyrazol-4-yl)sulfonyl)-2-((6-methoxypyridin-3-yl)methyl)phthalazin-1(2H)-one], the Emax was 94.5%. Further, the EC50 (hPKM2 EC50, recombinant human PKM2 activation) was 153 nM.
Regarding `O=c1c2ccc(S(=O)(=O)c3ccccc3)cc2cnn1Cc1ccsc1CO` [Example 22, 2-((2-(hydroxymethyl)thiophen-3-yl)methyl)-6-(phenylsulfonyl)phthalazin-1(2H)-one], under setting [1], the Emax was 86.1%. For the same compound, the concentration for a half-maximal effect (EC50) under setting [2] was 102 nM.
With `Cn1cc(S(=O)(=O)c2ccc3c(=O)n(Cc4cc(Cl)[nH]n4)ncc3c2)cn1` [Example 317], the Emax under setting [1] came out at 109%. The concentration giving a half-maximal response (EC50) under setting [2] is 169 nM.
Taken in the same sequence, the figures for `COc1ccc(Cn2ncc3cc(S(=O)(=O)c4cnn(C)c4)ccc3c2=O)cn1` [Example 168, 2-((6-methoxypyridin-3-yl)methyl)-6-((1-methyl-1H-pyrazol-4-yl)sulfonyl)phthalazin-1(2H)-one] were 96% and 103 nM.
In the same order, the values of `Nc1cccc(Cn2ncc3cc([S+]([O-])c4ccccc4)ccc3c2=O)c1` (stereo not drawn) [Example 119, 2-(3-aminobenzyl)-6-(phenylsulfinyl)phthalazin-1(2H)-one] are 98.8% and 348 nM.
In the case of `Cn1ccc(Cn2ncc3c(F)c(S(=O)(=O)c4ccccc4)ccc3c2=O)n1` [Example 243, 5-fluoro-2-((1-methyl-1H-pyrazol-3-yl)methyl)-6-(phenylsulfonyl)phthalazin-1(2H)-one], the maximal effect (Emax) under setting [1] came to 109%. For the same compound, the EC50 under setting [2] came to 86 nM.
In the same order, the values of `Cc1cc2nc(Cn3ncc4cc(S(=O)(=O)c5cn[nH]c5)ccc4c3=O)ccc2o1` [Example 345] are 113% and 11.4 nM.
Regarding `COc1ccc(S(=N)(=O)c2ccc3c(=O)n(Cc4ccc(OC)nc4)ncc3c2)cc1` (racemic) [Example 137, 6-(4-methoxyphenylsulfonimidoyl)-2-((6-methoxypyridin-3-yl)methyl)phthalazin-1(2H)-one], under setting [1], the Emax came out at 81.9%. For the same compound, the concentration for a half-maximal effect (EC50) under setting [2] came out at 129 nM.
For `C[C@H](O)c1cccc(Cn2ncc3cc(S(=O)(=O)c4cnn(C)c4)ccc3c2=O)n1` (single isomer, unassigned) [Example 278], the Emax under setting [1] is 78.6%. For the same compound, the half-maximal effective concentration (EC50) under setting [2] was 434 nM.
Taken in the same sequence, the figures for `COc1ccc(Cn2ncc3cc(S(=O)(=O)c4ccc(OC(F)F)cc4)ccc3c2=O)cn1` [Example 153, 6-(4-(difluoromethoxy)phenylsulfonyl)-2-((6-methoxypyridin-3-yl)methyl)phthalazin-1(2H)-one] were 77.2% and 15.7 nM.
Taken in the same sequence, the figures for `Cn1cc(S(=O)(=O)c2cc3cnn(Cc4cc[nH]n4)c(=O)c3cn2)cn1` [Example 266, 3-((1H-pyrazol-3-yl)methyl)-7-((1-methyl-1H-pyrazol-4-yl)sulfonyl)pyrido[3,4-d]pyridazin-4(3H)-one] were 92.3% and 191 nM.
